{"source": "patent US20190337927A1", "about": "“PHOTOPROTECTIVE COMPOSITIONS CONTAINING MALASSEZIA-DERIVED COMPOUNDS AND/OR CHEMICAL ANALOGS THEREOF” (priority 2018, published 2019)", "key": {"[1]": {"biological_target": "T1, arylhydrocarbon receptor (AhR) (Homo sapiens, UniProt P35869)", "T1 sequence (P35869 11-848)": "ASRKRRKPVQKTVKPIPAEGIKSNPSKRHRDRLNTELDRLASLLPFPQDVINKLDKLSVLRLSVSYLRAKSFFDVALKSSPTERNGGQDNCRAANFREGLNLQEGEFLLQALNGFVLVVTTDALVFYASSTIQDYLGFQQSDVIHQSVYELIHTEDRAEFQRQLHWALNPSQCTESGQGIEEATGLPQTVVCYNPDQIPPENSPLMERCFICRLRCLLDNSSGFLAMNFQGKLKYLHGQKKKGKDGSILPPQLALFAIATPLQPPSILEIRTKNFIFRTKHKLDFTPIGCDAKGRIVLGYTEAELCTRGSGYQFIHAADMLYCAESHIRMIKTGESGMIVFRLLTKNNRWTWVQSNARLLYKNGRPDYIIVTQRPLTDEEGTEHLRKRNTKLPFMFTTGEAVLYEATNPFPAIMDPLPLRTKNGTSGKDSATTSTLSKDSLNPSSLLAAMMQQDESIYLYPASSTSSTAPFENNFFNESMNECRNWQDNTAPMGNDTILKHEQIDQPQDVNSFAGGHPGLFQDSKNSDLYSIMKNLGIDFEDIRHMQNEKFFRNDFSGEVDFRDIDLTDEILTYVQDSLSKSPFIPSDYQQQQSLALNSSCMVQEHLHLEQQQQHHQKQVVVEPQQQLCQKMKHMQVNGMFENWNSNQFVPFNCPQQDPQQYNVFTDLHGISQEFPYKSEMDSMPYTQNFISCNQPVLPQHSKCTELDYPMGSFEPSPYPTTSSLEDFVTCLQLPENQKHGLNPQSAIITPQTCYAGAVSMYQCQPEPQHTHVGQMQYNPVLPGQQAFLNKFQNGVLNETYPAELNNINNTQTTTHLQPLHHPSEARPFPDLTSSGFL", "conditions": "cited from earlier work"}, "Skin Type IV female": {"system": "Skin Type IV female", "experiment": "In vivo photoprotection proof of concept study: UVB-induced erythema after topical treatment", "design": "species or system human", "conditions": "one subject", "description": "The Malassezin 1% formulation used in this study contained the following ingredients: Water (aqua)—65.939%; Dimethyl isosorbide—20.000%; Olive Oil Glycereth-8 Esters—3.000%; Glycerin—2.991%; Coconut Alkanes—2.700%; Hydroxyethyl Acrylate/Sodium Acryloyldimethyl Taurate Copolymer—1.700%; Malassezin—1.000%; Pentylene Glycol—1.000%; Phenoxyethanol—0.640%; Coco-Caprylate/Caprate—0.300%; Caprylyl Glycol—0.200%; Chlorphenesin—0.160%; Sorbitan Isostearate—0.140%; Tocopherl—0.100%; Polysorbate 60—0.080%; and Disodium EDTA—0.050%.\nA Skin Type IV […] was included in this Proof of Concept study.\nA template of 6 squares was placed on the lower left back (1.5 cm×1.5 cm) of the test subject See FIG. 7.\nTwenty-four hours after irradiation, the subject returned for MED assessment.\nA second right lower square was treated twice daily from day 4 to day 7, and a third medial square for one application on day 7. The product vehicle was applied for 7 days twice daily on the left back. The subject returned to the research center for irradiation on day 7. Each test site was irradiated with 120 mJ of UVB exposure. The subject returned in 24 hours for assessment of phototoxicity/photoprotection.\nThe subject continued the experiment, receiving Malassezin 1% for a total of 14 days. […]"}, "[2]": {"system": "primary human melanocytes", "conditions": "cited from earlier work"}, "[3]": {"conditions": "cited from earlier work"}, "Candida albicans": {"system": "Candida albicans", "conditions": "cited from earlier work"}, "staphylococci": {"system": "staphylococci", "conditions": "cited from earlier work"}, "yeast model": {"system": "yeast model", "conditions": "cited from earlier work"}}, "note": "Like-named read-outs stand apart in the source and are kept apart here.", "data": [{"smiles": "O=C1Nc2ccccc2/C1=C1/Nc2ccccc2C1=O", "note": "[Indirubin]", "values": [{"measurement": "AhR activity", "setting": "[1]", "value": "agonist"}]}, {"smiles": "O=Cc1c(Cc2c[nH]c3ccccc23)[nH]c2ccccc12", "note": "[Malassezin, 2-(1H-indol-3-ylmethyl)-1H-indole-3-carbaldehyde]", "values": [{"measurement": "UV-protective properties, study conclusion", "setting": "Skin Type IV female", "value": "UV-protective properties"}, {"measurement": "AhR activity", "setting": "[1]", "value": "agonist"}, {"measurement": "apoptosis induction", "setting": "[2]", "value": "induces apoptosis"}]}, {"smiles": "O=C(c1c[nH]c2ccccc12)c1nccc2c1[nH]c1ccccc12", "note": "[Pityriacitrin]", "values": [{"measurement": "UV protective effect overall", "setting": "[3]; in vitro and in vivo tests in humans", "value": "very weak"}, {"measurement": "sun protection factor (SPF)", "setting": "[3]; pityriacitrin concentration 1.25% in cream", "value": 1.4}, {"measurement": "sun protection factor (SPF)", "setting": "[3]; pityriacitrin concentration 2.5% in cream", "value": 1.5}, {"measurement": "sun protection factor (SPF)", "setting": "[3]; pityriacitrin concentration 5% in cream", "value": 1.7}, {"measurement": "UV-protective effect", "setting": "Candida albicans", "value": "UV-protective effect"}, {"measurement": "toxicity", "setting": "Candida albicans; ranges tested", "value": "no toxicity"}, {"measurement": "UV-protective effect", "setting": "staphylococci", "value": "UV-protective effect"}, {"measurement": "toxicity", "setting": "staphylococci; ranges tested", "value": "no toxicity"}]}, {"smiles": "O=C1OC(c2c[nH]c3ccccc23)=C(c2c[nH]c3ccccc23)C1=O", "note": "[Pityrialactone]", "values": [{"measurement": "UV protective properties", "setting": "yeast model", "value": "confirmed"}]}]}
